Measurements as given in patent US7268131B2, “Substituted [1,4]oxazino[2,3-g]indazoles for the treatment of glaucoma” (Alcon, Inc., priority 2003, dated 2007).
Structures can show the parent of a compound that is named as a salt.

Tests used:
5-HT2A [1] = biological target: T1, 5-HT2A (Rattus norvegicus, UniProt P14842); experiment: 5-HT2 functional Assay: [Ca2+]i Mobilization (FLIPR); type: cell-based; set-up: endogenous in cells; host or cells: A7r5 rat vascular smooth muscle cells; settings: for EC50: [Ca2+]i mobilization, A7r5 rat vascular smooth muscle cells, FLIPR; for Emax: percentage of a maximum 5-HT-induced response, A7r5 cells
Experimental: 5-HT2 functional Assay: [Ca^2+]i Mobilization
The receptor-mediated mobilization on intracellular calcium ([Ca^2+]i) was studied using the Fluorescence Imaging Plate Reader (FLIPR) instrument. Rat vascular smooth muscle cells, A7r5, were grown in a normal media of DMEM/10% FBS and 10 μg/mL gentamycin. Confluent cell monolayers were trypsinized, pelleted, and re-suspended in normal media. Cells were seeded in a 50 μL volume at a density of 20,000 cells/well in a black wall, 96-well tissue culture plate and grown for 2 days.
On the day of the experiment, one vial of FLIPR Calcium Assay Kit dye was re-suspended in 50 mL of a FLIPR buffer consisting of Hank's Balanced Salt Solution (HBSS), 20 mM HEPES, and 2.5 mM probenecid, pH 7.4. Cells were loaded with the calcium-sensitive dye by addition of an equal volume (50 μL) to each well of the 96-well plate and incubated with dye for 1 h at 23° C.
Typically, test compounds were stored at 25 μM in 50% DMSO/50% Ethanol solvent. Compounds were diluted 1:50 in 20% DMSO/20% Ethanol. For “hit” screening, compounds were further diluted 1:10 in FLIPR buffer and tested at a final concentration of 10 μM. For dose-response experiments, compounds were diluted 1:50 in FLIPR buffer and serially diluted 1:10 to give a 5- or 8-point dose-response curve.
The compound plate and cell plate were placed in the FLIPR instrument. At the beginning of an experimental run, a signal test was performed to check the basal fluorescence signal from the dye-loaded cells and the uniformity of the signal across the plate. The basal fluorescence was adjusted between 8000-12000 counts by modifying the exposure time, the camera F-stop, or the laser power. Instrument settings for a typical assay were the following: laser power 0.3-0.6 W, camera F-stop F/2, and exposure time 0.4 sec. An aliquot (25 μL) of the test compound was added to the existing 100 μL dye-loaded cells at a dispensing speed of 50 μL/sec. Fluorescence data were collected in real-time at 1.0 sec intervals for the first 60 secs and at 6.0 sec intervals for an additional 120 secs. Responses were measured as peak fluorescence intensity minus basal and where appropriate were expressed as a percentage of a maximum 5-HT-induced response. When the compounds were tested as antagonists against 10 μM 5-HT, they were incubated with the cells for 15 minutes prior to the addition of 5-HT.

5-HT2A [2] = biological target: T1, 5-HT2A; experiment: 5-HT2 Receptor Binding Assay ([125I]DOI competition); settings: competition for [125I]DOI binding, rat or human cerebral cortex homogenates
Experimental: 5-HT2 Receptor Binding Assay
Aliquots of post mortem rat or human cerebral cortex homogenates (400 μL) dispersed in 50 mM Tris HCl buffer (pH 7.4) are incubated with [^125I]DOI (80 pM final) in the absence or presence of methiothepin (10 μM final) to define total and non-specific binding, respectively, in a total volume of 0.5 mL. The assay mixture is incubated for 1 hour at 23° C. in polypropylene tubes and the assays terminated by rapid vacuum filtration over Whatman GF/B glass fiber filters previously soaked in 0.3% polyethyleneimine using ice-cold buffer. Test compounds (at different concentrations) are substituted for methiothepin. Filter-bound radioactivity is determined by scintillation spectrometry on a beta counter. The data are analyzed using a non-linear, iterative curve-fitting computer program [Trends Pharmacol. Sci., 16, 413 (1995)] to determine the compound affinity parameter. The concentration of the compound needed to inhibit the [^125I]DOI binding by 50% of the maximum is termed the IC50 or Ki value.

T1 sequence (P14842 whole entry): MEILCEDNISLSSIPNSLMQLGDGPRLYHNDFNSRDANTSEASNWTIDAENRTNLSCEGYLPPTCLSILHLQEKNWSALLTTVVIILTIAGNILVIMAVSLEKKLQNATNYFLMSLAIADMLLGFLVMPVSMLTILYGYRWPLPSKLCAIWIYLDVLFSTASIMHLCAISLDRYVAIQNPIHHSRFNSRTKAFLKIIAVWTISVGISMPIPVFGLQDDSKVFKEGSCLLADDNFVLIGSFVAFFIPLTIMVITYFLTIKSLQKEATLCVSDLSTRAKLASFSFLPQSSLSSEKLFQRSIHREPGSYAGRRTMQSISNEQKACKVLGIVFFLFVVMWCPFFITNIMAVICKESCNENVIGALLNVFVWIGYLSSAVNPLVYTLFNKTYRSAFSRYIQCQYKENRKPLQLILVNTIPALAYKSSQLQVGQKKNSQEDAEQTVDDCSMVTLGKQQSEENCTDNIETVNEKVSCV

SMILES	melting point [°C]	EC50 (5-HT2A [1]) [nM]	Emax (5-HT2A [1]) [%]	IC50 (5-HT2A [2]) [nM]
C[C@H](N)Cn1ncc2ccc3c(c21)N(C)CCO3.O=C(O)/C=C/C(=O)O [Example 1, (S)-2-(8,9-dihydro-9-methyl-7H-[1,4]oxazino[2,3-g]indazol-1-yl)-1-methylethylamine fumarate]	185 to 187	20	82	1
C[C@H](N)Cn1ncc2ccc3c(c21)NC(=O)CO3.Cl [Example 2, 1-((S)-2-Aminopropyl)-1,9-dihydro-7H-[1,4]oxazino[2,3-g]indazol-8-one hydrochloride]	293 to 295	195	60	3.5
C[C@H](N)Cn1ncc2ccc3c(c21)N(C)C(=O)CO3 [Example 3, 1-((S)-2-Aminopropyl)-1,9-dihydro-9-methyl-7H-[1,4]oxazino[2,3-g]indazol-8-one hydrochloride]		550	41	7.6
